Structures can show the parent of a compound that is named as a salt.
Biological target: solubilized endothelin converting enzyme (P3 from rat lung)
Experiment: ECE Inhibitor Screening Assay
Format: biochemical
Settings: Big ET substrate, 30 minutes at 37° C., HPLC of ET-1 and Big ET, read-out: Inhibition of Endothelin Converting Enzyme IC50
Method: The above mixture without the test compound was used as the control.
Following a 15 minute preincubation at 37° C., benzyl succinate (100 μM), NaOAc, and Big ET (3 μg) were added. The mixture was incubated for 30 minutes at 37° C., followed by addition of pepstatin (40 μM) and 10% TFA to stop the reaction. The mixture was vortexed, centrifuged and the supernatant retained for HPLC determination of Big ET, ET-1 and CTF. […] Percent inhibiton calculations were made with reference to controls based on quantitation of the ET-1 and Big ET peaks at the end of the incubation period.

SMILES	IC50 [µM]
CCC(C)C(NC(=O)C(CC1CCCCC1)NC(=O)OC(C)(C)C)C(=O)NC(CC(C)C)C(O)CC(=O)NCCN1CCOCC1 (stereo not shown) [Example 42, N-Boc-Cyclohexylalanyl-Isoleucyl-Statyl N-(2-(Morpholin-4-yl)ethyl)Carboxamide]	0.016
CCC(C)C(NC(=O)C(CC1CCCCC1)NC(=O)N1CCOCC1)C(=O)N[C@@H](Cc1ccc2ccccc2c1)[C@@H](O)[C@@H](O)CC(C)C (stereo partly drawn) [Example 53, (2S,3R,4S)-2-{[N-(Morpholin-1-yl-carbonyl)-Cyclohexylalanyl-Isoleucyl]amino}-1-(2-naphthyl)-3,4-dihydroxy-6-methylheptane]	0.003
CCC(C)C(NC(=O)C(CC1CCCCC1)NC(=O)OC(C)(C)C)C(=O)NC(CC(C)C)C(O)CC(=O)O (stereo not shown) [Example 15, N-Boc-Cyclohexylalanyl-Isoleucyl-Statyl-OH]	0.047
CCOC(=O)CC(O)C(CC(C)C)NC(=O)C(NC(=O)[C@@H](NC(=O)OC(C)(C)C)C(C)(C)C)C(C)CC (stereo partly drawn) [Example 1, N-{(S)-2-[(tert-Butyloxycarbonyl]amino]-3,3-dimethylbutanoyl}-Isoleucyl-Statyl Ethyl ester]	0.05
CCC(C)C(NC(=O)C(CC(C)(C)C)NC(=O)OC(C)(C)C)C(=O)NC(CC(C)C)C(O)CC(=O)O (stereo not shown) [Example 45, N-Boc-tert-Butylalanyl-Isoleucyl-Statyl-OH]	0.051
CCC(C)C(NC(=O)C(CC1CCCCC1)NC(=O)OC(C)(C)C)C(=O)N[C@@H](CC1CCCCC1)[C@@H](O)[C@@H](O)CC(C)C (stereo partly shown) [Example 28]	0.009
CCOC(=O)CCNC(=O)CC(O)C(CC(C)C)NC(=O)C(NC(=O)C(NC(=O)OC(C)(C)C)C(C)CC)C(C)CC (stereo not drawn) [Example 13, N-Boc-Isoleucyl-Isoleucyl-Statyl-β-Alanyl Ethyl ester]	0.017
CC[C@H](C)[C@H](NC(=O)OC(C)(C)C)C(=O)N[C@H](C(=O)N[C@@H](CC1CCCCC1)[C@@H](O)[C@@H](O)CC(C)C)[C@@H](C)CC [Example 24, (2S,3R,4S)-2-(N-Boc-Isoleucyl-Isoleucyl-Amino)-1-cyclohexyl-3,4-dihydroxy-6-methylheptane]	0.007
CCC(C)C(NC(=O)C(CC1CCCCC1)NC(=O)OC(C)(C)C)C(=O)N[C@@H](Cc1c[nH]c2ccccc12)C(O)CC(=O)NC(C(=O)O)C(C)C (stereo partly drawn) [Example 23, N-[(4S)-4-(N-Boc-Cyclohexylalanyl-Isoleucyl-Amino)-5-(3-indolyl)-3-hydroxypentanoyl]-Valyl-OH]	0.024
CCC(C)C(NC(=O)OC(C)(C)C)C(=O)NC(C(=O)NC(CC(C)C)C(O)CC(=O)NCCCCO)C(C)CC (stereo not shown) [Example 6, N-Boc-Isoleucyl-Isoleucyl-Statyl (4-Hydroxybutyl)carboxamide]	0.057
CCC(C)C(NC(=O)C(CC1CCCCC1)NC(=O)N1CCN(C)CC1)C(=O)N[C@@H](Cc1ccc2ccccc2c1)[C@@H](O)[C@@H](O)CC(C)C (stereo partly drawn) [Example 43, (2S,3R,4S)-2-{[IN-(4-Methylpiperazin-1-yl-carbonyl)-Cyclohexylalanyl-Isoleucyl]amino}-1-(2-naphthyl)-3,4-dihydroxy-6-methylheptane Hydrochloride]	0.006
CCC(C)C(NC(=O)OC(C)(C)C)C(=O)NC(C(=O)NC(CC(C)C)C(O)CC(=O)NCCC(=O)O)C(C)CC (stereo not drawn) [Example 16, N-Boc-Isoleucyl-Isoleucyl-Statyl-β-Alanyl-OH]	0.03
CCC(C)C(NC(=O)OC(C)(C)C)C(=O)NC(C(=O)NC(CC(C)C)C(O)CC(=O)NCC(C)C)C(C)CC (stereo not shown) [Example 14, N-Boc-Isoleucyl-Isoleucyl-Statyl Isobutylcarboxamide]	0.008
CCOC(=O)CC(O)C(CC(C)C)NC(=O)C(NC(=O)C(CC1CCCCC1)NC(=O)OC(C)(C)C)C(C)CC (stereo not shown) [Example 12, N-Boc-Cyclohexylalanyl-Isoleucyl-Statyl Ethyl ester]	0.019
CC[C@H](C)[C@H](NC(=O)[C@H](C)N(C(=O)N(C)CCN(C)C)C1CCCCC1)C(=O)N[C@@H](Cc1ccc2ccccc2c1)[C@@H](O)[C@@H](O)CC(C)C [Example 54, (2S,3R,4S)-2-{[{N-(N,N-Dimethylaminoethyl)-N-methylamino}carbonyl -Cyclohexylalanyl-Isoleucyl]amino}-1-(2-naphthyl)-3,4-dihydroxy-6-methylheptane]	0.005
CCC(C)C(NC(=O)C(CC1CCCCC1)NC(=O)OC(C)(C)C)C(=O)NC(CC(C)C)C(O)CC(=O)NCC(C)C (stereo not shown) [Example 39, N-Boc-Cyclohexylalanyl-Isoleucyl-Statyl Isobutylcarboxamide]	0.0095

SMILES	IC50 [µM]
CCC(C)C(NC(=O)C(CC1CCCCC1)NC(=O)CCC(=O)O)C(=O)N[C@@H](Cc1ccc2ccccc2c1)[C@@H](O)[C@@H](O)CC(C)C (stereo partly drawn) [Example 48, (2S,3R,4S)-2-{[N-Succinyl-Cyclohexylalanyl-Isoleucyl]amino}-1-(2-naphthyl)-3,4-dihydroxy-6-methylheptane]	0.007
CC[C@H](C)[C@H](NC(=O)CCC(=O)O)C(=O)N[C@H](C(=O)N[C@@H](CC1CCCCC1)[C@@H](O)[C@@H](O)CC(C)C)[C@@H](C)CC [Example 25, (2S,3R,4S)-2-(N-Succinyl-Isoleucyl-Isoleucyl-Amino)-1-cyclohexyl-3,4-dihydroxy-6-methylheptane]	0.017
CC[C@H](C)[C@H](NC(=O)[C@H](C)N(C1CCCCC1)S(=O)(=O)N1CCN(C)CC1)C(=O)N[C@@H](Cc1ccc2ccccc2c1)[C@@H](O)[C@@H](O)CC(C)C [Example 55, (2S,3R,4S)-2-{[N-(4-Methylpiperazin-1-yl-sulfonyl)-Cyclohexylalanyl-Isoleucyl]amino}-1-(2-naphthyl)-3,4-dihydroxy-6-methylheptane]	0.005
CCC(C)C(NC(=O)C(CC(=O)OCc1ccccc1)NC(=O)OC(C)(C)C)C(=O)NC(C(=O)N[C@@H](Cc1ccc2ccccc2c1)[C@@H](O)[C@@H](O)CC(C)C)C(C)CC (stereo partly drawn) [Example 46, (2S,3R,4S)-2-{[N-Boc-Aspartyl(β-O-Benzyl)-Isoleucyl-Isoleucyl]amino}-1-(2-naphthyl)-3,4-dihydroxy-6-methylheptane]	0.004
CC[C@H](C)[C@H](NC(C)=O)C(=O)N[C@H](C(=O)N[C@@H](CC1CCCCC1)[C@@H](O)[C@@H](O)CC(C)C)[C@@H](C)CC [Example 27, (2S,3R,4S)-2-(N-Acetyl-Isoleucyl-Isoleucyl-Amino)-1-cyclohexyl-3,4-dihydroxy-6-methylheptane]	0.029
CC[C@H](C)[C@H](NC(=O)OCc1ccccc1)C(=O)N[C@H](C(=O)NC(CC(C)C)P(=O)(O)CC(=O)OC(C)(C)C)[C@@H](C)CC (stereo partly shown) [Example 33, [1-[N-Cbz-Isoleucyl-Isoleucyl-Amino]-3-methylbutyl (hydroxy)phosphinyl]acetic acid tert-Butyl ester]	0.033
CCC(C)C(NC(=O)C(CC1CCCCC1)NC(=O)OC(C)(C)C)C(=O)NC(CC(C)C)C(O)CC(=O)NCCc1ccccn1 (stereo not shown) [Example 40, N-Boc-Cyclohexylalanyl-Isoleucyl-Statyl N-(2-(2-Pyridyl)ethyl)Carboxamide]	0.01
CCC(C)C(NC(=O)OC(C)(C)C)C(=O)NC(C(=O)NC(CC(C)C)C(O)CC(=O)NCC1CCCCC1)C(C)CC (stereo not shown) [Example 35, N-Boc-Isoleucyl-Isoleucyl-Statyl Cyclohexylmethylcarboxamide]	0.017
CCC(C)C(NC(=O)C(CC(=O)OCc1ccccc1)NC(=O)OC(C)(C)C)C(=O)NC(C(=O)N[C@@H](CC1CCCCC1)[C@@H](O)[C@@H](O)CC(C)C)C(C)CC (stereo partly drawn) [Example 26, (2S,3R,4S)-2-(N-BOC-Aspartyl(β-O-Benzyl)-Isoleucyl-Isoleucyl -Amino)-1-cyclohexyl-3,4-dihydroxy-6-methylheptane]	0.007
CCC(C)C(NC(=O)OC(C)(C)C)C(=O)NC(C(=O)NC(CC(C)C)C(O)CC(=O)NCCC(C)C)C(C)CC (stereo not shown) [Example 34, N-Boc-Isoleucyl-Isoleucyl-Statyl Isoamylcarboxamide]	0.019
CCC(C)C(NC(=O)OC(C)(C)C)C(=O)NC(C(=O)NC(CC(C)C)C(O)CC(=O)NCCCCCCO)C(C)CC (stereo not shown) [Example 8, N-Boc-Isoleucyl-Isoleucyl-Statyl (6-Hydroxyhexyl)carboxamide]	0.039
CCC(C)C(NC(=O)OC(C)(C)C)C(=O)NC(C(=O)NC(CC(C)C)C(O)CC(=O)NCCc1ccccn1)C(C)CC (stereo not shown) [Example 47, N-Boc-Isoleucyl-Isoleucyl-Statyl N-(2-(2-Pyridyl)ethyl)Carboxamide]	0.02
CCC(C)C(NC(=O)C(CC1CCCCC1)NC(=O)OC(C)(C)C)C(=O)NC(CC(C)C)C(O)CC(=O)NCCN(C)C (stereo not shown) [Example 41, N-Boc-Cyclohexylalanyl-Isoleucyl-Statyl N-(2-N',N'-Dimethylaminoethyl)Carboxamide]	0.018
CCC(C)C(NC(=O)OC(C)(C)C)C(=O)NC(C(=O)NC(CC(C)C)C(O)CC(=O)NCCCCCO)C(C)CC (stereo not shown) [Example 7, N-Boc-Isoleucyl-Isoleucyl-Statyl (5-Hydroxyamyl)carboxamide]	0.068
CCC(C)C(NC(=O)OC(C)(C)C)C(=O)NC(C(=O)NC(CC(C)C)C(O)CC(=O)N(C)CC(C)C)C(C)CC (stereo not shown) [Example 52, N-Boc-Isoleucyl-Isoleucyl-Statyl N-Methyl-N-Isobutyl Carboxamide]	0.01
